According to patent US20210348171A1, “PHARMACOPROTEOMICS PLATFORM IDENTIFYING KINOME FEATURES REGULATING DRUG RESPONSE IN CANCER” (University of Washington, priority 2020, published 2021):

Key:
Assay type in all cases: cell-based, Human
[1] = system: SNU449 cells; assay: Inhibitor co-treatment growth inhibition (WZ4003 with AZD7762 or dinaciclib); conditions: for dose dependence of the cotreatment effect: AZD7762 plus WZ4003; for decrease of EC50 on cotreatment with WZ4003: cotreatment with NUAK1/2 inhibitor WZ4003, 72 h, n=4
Text: To identify combinatorial treatment strategies targeting mesenchymal and drug resistant HCC cells, the next step was to analyze drug sensitivity pathways that become activated upon AXL and NUAK1/2 inhibition and EMT reversal. […] It was also observed increased cell cycle activity among epithelial lines in the 17 HCC line panel (FIG. 9B), that was accompanied by elevated activity of kinases promoting DDR signaling and cell survival under conditions of replication stress. For instance, activation of CHEK1 and 2 along with increased phosphorylation of ATR, CHEK1/2 and WEE1 substrates were observed (FIGS. 4A and 9C). Similarly, AXL RNAi in FOCUS cells activated the DDR kinases CHEK1 and WEE1, increasing phosphorylation of their substrates CDK11B and CDK2 (FIGS. 4B and 9D). […] It was reasoned, therefore, that combinatorial inhibition of AXL or NUAK1/2, as well as cell cycle checkpoint kinases could efficiently kill mesenchymal HCC cells (FIG. 4D). To test this strategy, the mesenchymal and drug resistant SNU449 line was cotreated with the selective NUAK1/2 inhibitor WZ4003 (Banerjee, S., et al. (2014). Characterization of WZ4003 and HTH-01-015 as selective inhibitors of the LKB1-tumour-suppressor-activated NUAK kinases. Biochem J 457, 215-225, incorporated herein by reference in its entirety) and the CHEK1/2 inhibitor AZD7762. Additionally, the CDK inhibitor dinaciclib was used to test if elevated, EMT state-dependent, cell cycle activity translates into increased efficacy of such drugs. […] These encouraging results led to establishment of SNU449 NUAK1 or NUAK2 RNAi cells (FIG. 9E). Gratifyingly, treating SNU449 NUAK RNAi cells and WT controls with varying doses of AZD7762 and dinaciclib recapitulated the drug co-treatment results (˜3- to 4-fold decrease in EC50s, FIG. 4H). To consolidate these findings, the FOCUS NUAK and AXL RNAi cell lines were tested against AZD7762 and dinaciclib. As in SNU449 cells, NUAK1/2 RNAi FOCUS cells were sensitized to kinase inhibition up to ˜5-fold (FIG. 4I).
1800 cells/well were seeded onto white flat bottom half area 96-well plates (Greiner Bio-One, Kremsmuenster, AT) in 50 μl of growth medium and allowed to attach in an incubator for 24 h. Then the drugs in DMSO and/or DMSO vehicle controls as 11× solutions in growth medium were added to a total volume of 55 μl and 0.1% DMSO final. The cells were grown in an incubator for another 72 h. Then, 55 μl of CellTiter-Glo 2.0 (Promega, Madison, Wis.) reagent/well were added according to the manufacturer's instructions and luminescence was quantified with a SpectraMax 190 plate reader (Molecular Devices, San Jose, Calif.). The CHEK1/2 inhibitor AZD7762 (Selleckchem, Houston, Tex.) and the NUAK1/2 inhibitor WZ4003 (Tocris Bioscience, Minneapolis, Minn.) were applied at 8 different concentrations between 10 μM and 4.6 nM (3-fold dilution steps) and Dinaciclib (Selleckchem) was applied at 8 different concentrations between 1 μM and 0.5 nM (3-fold dilution steps). Experiments were performed in four biological replicates. Growth inhibition curves were fitted using the GraphPad Prism software package (V5.0a) with a least-squares nonlinear regression model for curve fitting (One site-Fit log IC50 function).

[2] = system: FOCUS, SKHep1, SNU761 RNAi lines; assay: Drug synergy in AAK1, RALBP1, REPS1, REPS2 knockdown lines (Cell Titer Glo 2.0); conditions: RNAi lines vs scramble control, 72 hours
Text: (1) Kinases and their interaction partners are depleted from cell lines using either small hairpin RNAs (shRNAs) or CRISPR/Cas9 knockout. […] This assay aims to discover drug synergies that may be exploited to develop novel combination therapies.
The next step was to assess the ability of an AAK1 knockdown to sensitize the cells to extant KI targeting therapeutics.

[3] = system: mesenchymal HCC cells with CAMK1D shRNAi knockdown; assay: Drug sensitization in CAMK1D knockdown lines (Cell Titer Glo 2.0); conditions: RNAi lines vs scramble control, 72 hours
Text: The approach to validate the role AAK1 is represented schematically in FIG. 10A. As illustrated, the general workflow pipeline is to test the biological function of kinases and their interaction partners function in EMT and cancer therapy resistance. (1) Kinases and their interaction partners are depleted from cell lines using either small hairpin RNAs (shRNAs) or CRISPR/Cas9 knockout. (2) Effects of RNAi knockdown (KD) or CRISPR knockout (KO) are quantified on cellular signaling pathways using unbiased MS-based kinome-centric and global proteome and phosphoproteome profiling. (3) KD/KO effects on EMT state are studied by quantifying 12 well-known EMT and stemness markers such as CDH1, VIM, SNAI2 and TWIST1 using qPCR and western blotting. (4) KD/KO effects are confirmed/determined on cancer therapy resistance by treating KD/KO cell lines with 15 clinical and pre-clinical HCC drugs, quantifying cell viability using the Promega Cell Titer Glo 2.0 assay. […] (5) KD/KO effects are measured on cell migration and invasion by conducting trans-well migration and wound scratch assays. […]
Further analyses of CAMK1D were conducted to further investigate its role in EMT and potential therapeutic target. […] Phosphoproteins were quantified using global MS-based phosphoproteomics according to our previously published protocol. […]

decrease of EC50 on cotreatment with WZ4003 [1] [fold]	SMILES	significance of the cotreatment effect at low WZ4003 ([1]; 1 μM of WZ4003 with AZD7762)	dose dependence of the cotreatment effect [1]	effect of knockdown of AAK1 and interaction partners on drug treatment [2]	effect of CAMK1D knockdown on drug treatment [3]
	CCC(=O)Nc1cccc(Oc2nc(Nc3ccc(N4CCN(C)CC4)cc3OC)ncc2Cl)c1 [WZ4003]	still significant	dose-dependent		
~3	NC(=O)Nc1cc(-c2cccc(F)c2)sc1C(=O)N[C@H]1CCCNC1 [AZD7762]		dose-dependent	sensitizes	sensitizes
~2	CCc1cnn2c(NCc3ccc[n+]([O-])c3)cc(N3CCCC[C@H]3CCO)nc12 [dinaciclib, Dinaciclib]				
	O=c1[nH]c2ccc(Cl)cc2c(N[C@@H]2CN3CCC2CC3)c1-c1nc2ccccc2[nH]1 [CHIR-124]			sensitizes	sensitizes
